22 compounds from patent US9434711B2 (Janssen Pharmaceutica, NV, priority 2007, dated 2016) can be followed below.

The target in this assay is canine TRPM8 (Canis lupus familiaris, UniProt Q1A7N1). In words: In Vitro Canine TRPM8 Functional Assay (Ca2+ fluorescence, icilin activation). The assay is classed as cell-based. The note with it: for IC50: HEK293 cells stably expressing canine TRPM8, icilin activation, eight-point dose-response, read-out: IC50; for inhibition at 0.2 µM / % Inh @ 0.2 (μM): compound at 0.2 μM, canine TRPM8, icilin activation; for inhibition at 0.2 µM: read-out: % Inh @ 0.2. The method, boiled down:
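Canine TRPM8 stably expressed in HEK293; compound added 5 min before icilin challenge (~80% max response), with fluorescent Ca2+ signal tracked throughout.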

Chain of canine TRPM8 (Q1A7N1 1-1104): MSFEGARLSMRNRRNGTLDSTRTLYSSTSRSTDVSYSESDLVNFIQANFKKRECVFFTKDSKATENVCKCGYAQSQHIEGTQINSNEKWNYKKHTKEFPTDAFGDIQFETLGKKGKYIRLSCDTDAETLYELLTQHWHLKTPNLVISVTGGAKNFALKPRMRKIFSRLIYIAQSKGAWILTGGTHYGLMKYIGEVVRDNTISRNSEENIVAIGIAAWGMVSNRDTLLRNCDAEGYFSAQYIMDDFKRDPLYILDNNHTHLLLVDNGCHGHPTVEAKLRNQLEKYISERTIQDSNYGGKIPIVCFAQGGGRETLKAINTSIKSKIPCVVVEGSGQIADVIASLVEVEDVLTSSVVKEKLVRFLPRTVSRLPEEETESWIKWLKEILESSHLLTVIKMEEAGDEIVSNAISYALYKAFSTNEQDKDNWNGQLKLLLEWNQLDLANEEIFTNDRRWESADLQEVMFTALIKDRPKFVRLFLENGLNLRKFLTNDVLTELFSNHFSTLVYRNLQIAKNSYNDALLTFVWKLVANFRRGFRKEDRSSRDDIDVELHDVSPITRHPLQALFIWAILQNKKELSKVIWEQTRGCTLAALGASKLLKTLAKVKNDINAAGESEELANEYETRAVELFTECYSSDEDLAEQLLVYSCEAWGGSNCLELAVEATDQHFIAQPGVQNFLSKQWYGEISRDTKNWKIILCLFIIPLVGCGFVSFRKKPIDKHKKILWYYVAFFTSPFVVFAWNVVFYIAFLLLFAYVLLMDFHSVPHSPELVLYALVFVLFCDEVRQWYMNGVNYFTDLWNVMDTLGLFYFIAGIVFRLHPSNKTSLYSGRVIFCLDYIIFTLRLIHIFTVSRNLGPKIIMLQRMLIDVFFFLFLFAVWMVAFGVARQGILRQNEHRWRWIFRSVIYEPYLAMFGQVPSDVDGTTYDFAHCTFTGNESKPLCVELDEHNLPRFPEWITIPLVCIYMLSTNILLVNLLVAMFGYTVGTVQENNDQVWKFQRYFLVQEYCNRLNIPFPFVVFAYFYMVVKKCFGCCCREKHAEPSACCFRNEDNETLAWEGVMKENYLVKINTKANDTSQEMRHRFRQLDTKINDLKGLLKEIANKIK

Usually IC50 stands for the concentration that inhibits the measured activity by half. With `O=S(=O)(c1ccc(-c2nnn[nH]2)cc1)N(CCC1CC1)c1sc2ccccc2c1Cl` [Compound 635, N-(3-Chloro-benzo[b]thiophen-2-yl)-N-(2-cyclopropyl-ethyl)-4-(1H-tetrazol-5-yl)-benzenesulfonamide], the IC50 amounted to 7.4 nM and the inhibition at 0.2 µM is 101%.

For the compound `O=S(=O)(c1ccc(-c2nnn[nH]2)cc1)N(CCC(F)(F)F)c1sc2ccccc2c1Cl` [Compound 636, N-(3-Chloro-benzo[b]thiophen-2-yl)-N-(3,3,3-trifluoro-propyl)-4-(1H-tetrazol-5-yl)-benzenesulfonamide], the 50% inhibitory concentration (IC50) was 46 nM and the inhibition at 0.2 µM came out at 103%.

Turning to `Cc1c(N(CCC(F)(F)F)S(=O)(=O)c2ccc(-c3nsc(=O)[nH]3)cc2)sc2ccccc12` [Compound 637, N-(3-Methyl-benzo[b]thiophen-2-yl)-N-(3,3,3-trifluoro-propyl)-4-(5-oxo-4,5-dihydro-[1,2,4]thiadiazol-3-yl)-benzenesulfonamide], the IC50 is 12.2 nM and the inhibition at 0.2 µM amounted to 104%.

For `O=C(O)c1ccc(S(=O)(=O)N(CCC2CC2)c2cc3ccccc3s2)c(F)c1` [Compound 638, N-(3-Benzo[b]thiophen-2-yl)-N-(2-cyclopropyl-ethyl)-2-fluoro-4-carboxy-benzenesulfonamide], the 50% inhibitory concentration (IC50) is 60 nM and the “% Inh @ 0.2 (μM)” value turned out to be 100%.

In the case of `O=C(O)c1ccc(S(=O)(=O)N(CCC(F)(F)F)c2cc3ccccc3s2)c(F)c1` [Compound 639, N-(3-Benzo[b]thiophen-2-yl)-N-(3,3,3-trifluoro-propyl)-2-fluoro-4-carboxy-benzenesulfonamide], the IC50 was determined as 128 nM and the “% Inh @ 0.2 (μM)” value was 84%.

For `Cc1c(N(CCCCC(F)(F)F)S(=O)(=O)c2ccc(-c3nsc(=O)[nH]3)cc2)sc2ccccc12` [Compound 640, N-(3-Methyl-benzo[b]thiophen-2-yl)-N-(5,5,5-trifluoro-pentyl)-4-(5-oxo-4,5-dihydro-[1,2,4]thiadiazol-3-yl)-benzenesulfonamide], the half-inhibitory concentration (IC50) worked out at 11 nM and the inhibition at 0.2 µM amounted to 103%.

On to `Cc1c(N(CCC2CC2)S(=O)(=O)c2ccc(-c3nsc(=O)[nH]3)cc2)sc2ccccc12` [Compound 641, N-(3-Methyl-benzo[b]thiophen-2-yl)-N-(cyclopropyl-ethyl)-4-(5-oxo-4,5-dihydro-[1,2,4]thiadiazol-3-yl)-benzenesulfonamide], for which the 50% inhibitory concentration (IC50) was 14 nM and the inhibition at 0.2 µM worked out at 103%.

As to `O=c1[nH]c(-c2ccc(S(=O)(=O)N(CCC3CC3)c3cc4ccccc4s3)cc2)ns1` [Compound 642, N-(Benzo[b]thiophen-2-yl)-N-(cyclopropyl-ethyl)-4-(5-oxo-4,5-dihydro-[1,2,4]thiadiazol-3-yl)-benzenesulfonamide], the concentration for half-maximal inhibition (IC50) is 41 nM and the inhibition at 0.2 µM amounted to 90%.

Take `CN(C)C1=C(N(CCC2CC2)S(=O)(=O)c2ccccc2)S(=O)(=O)c2ccccc21` [Compound 643, N-(2-Cyclopropylethyl)-N-(3-dimethylamino-1,1-dioxo-1H-benzo[b]thiophen-2-yl)-benzenesulfonamide]: the IC50 came to 5 nM and the inhibition at 0.2 µM worked out at 103%.

`CNC1=C(N(CCC2CC2)S(=O)(=O)c2ccccc2)S(=O)(=O)c2ccccc21` [Compound 644, N-(2-Cyclopropylethyl)-N-(3-methylamino-1,1-dioxo-1H-benzo[b]thiophen-2-yl)-benzenesulfonamide]: the inhibition at 0.2 µM came out at 63%.

Consider `CN1CCN(C2=C(N(CCC3CC3)S(=O)(=O)c3ccccc3)S(=O)(=O)c3ccccc32)CC1` [Compound 645, N-(2-Cyclopropyl-ethyl)-N-[3-(4-methyl-piperazin-1-yl)-1,1-dioxo-1H-1λ^6-benzo[b]thiophen-2-yl]-benzenesulfonamide], for which the inhibition at 0.2 µM was found to be 20%.

Turning to `NC1=C(N(CCC2CC2)S(=O)(=O)c2ccccc2)S(=O)(=O)c2ccccc21` [Compound 646, N-(3-Amino-1,1-dioxo-1H-benzo[b]thiophen-2-yl)-N-(2-cyclopropylethyl)-benzenesulfonamide], the inhibition at 0.2 µM is 55%.

As for `O=S1(=O)C(N(CCC2CC2)S(=O)(=O)c2ccccc2)=C(N2CCNCC2)c2ccccc21` [Compound 647, N-(2-Cyclopropyl-ethyl)-N-(1,1-dioxo-3-piperazin-1-yl-1H-1λ^6-benzo[b]thiophen-2-yl)-benzenesulfonamide], the inhibition at 0.2 µM worked out at 21%.

Take `CNC1=C(N(Cc2ccc(F)c(C(F)(F)F)c2)S(=O)(=O)c2ccccc2)S(=O)(=O)c2ccccc21` [Compound 648, N-(4-Fluoro-3-trifluoromethyl-benzyl)-N-(3-methylamino-1,1-dioxo-1H-1λ^6-benzo[b]thiophen-2-yl)-benzenesulfonamide]: the inhibition at 0.2 µM came out at 62%.

Take `CN1CCN(C2=C(N(Cc3ccc(F)c(C(F)(F)F)c3)S(=O)(=O)c3ccccc3)S(=O)(=O)c3ccccc32)CC1` [Compound 649, N-(4-Fluoro-3-trifluoromethyl-benzyl)-N-[3-(4-methyl-piperazin-1-yl)-1,1-dioxo-benzo[b]thiophen-2-yl]-benzenesulfonamide]: the inhibition at 0.2 µM stood at 26%.

Take `Nc1ccc(S(=O)(=O)N(Cc2ccc(F)c(C(F)(F)F)c2)c2sc3ccccc3c2Br)cc1` [Compound 650, 4-Amino-N-(3-bromo-benzo[b]thiophen-2-yl)-N-(4-fluoro-3-trifluoromethyl-benzyl)-benzenesulfonamide]: the half-maximal inhibitory concentration (IC50) is 4 nM and the inhibition at 0.2 µM was 102%.

Turning to `Nc1ccc(S(=O)(=O)N(Cc2ccc(F)c(C(F)(F)F)c2)c2sc3ccccc3c2Br)cc1Br` [Compound 651, 4-Amino-3-bromo-N-(3-bromo-benzo[b]thiophen-2-yl)-N-(4-fluoro-3-trifluoromethyl-benzyl)-benzenesulfonamide], the IC50 is 6 nM and the inhibition at 0.2 µM worked out at 103%.

For `CS(=O)(=O)Nc1ccc(S(=O)(=O)N(Cc2ccc(F)c(C(F)(F)F)c2)c2cc3ccccc3s2)cc1` [Compound 652, N-(Benzo[b]thiophen-2-yl)-N-(4-fluoro-3-trifluoromethyl-benzyl)-4-methanesulfonylamino-benzenesulfonamide], the IC50 stood at 85 nM and the inhibition at 0.2 µM was determined as 102%.

On to `Nc1ccc(S(=O)(=O)N(Cc2ccc(F)c(C(F)(F)F)c2)c2cc3ccccc3s2)cc1` [Compound 653, 4-Amino-N-(benzo[b]thiophen-2-yl)-N-(4-fluoro-3-trifluoromethyl-benzyl)-benzenesulfonamide], for which the IC50 turned out to be 13 nM and the inhibition at 0.2 µM was 102%.

With `O=S(=O)(c1ccc(Br)cc1)N(CCC1CC1)c1cc2ccccc2s1` [Compound 654, N-(Benzo[b]thiophen-2-yl)-N-(2-cyclopropyl-ethyl)-4-bromo-benzenesulfonamide], the inhibition at 0.2 µM was 56%.

In the case of `O=S(=O)(c1ccc(Br)cc1)N(CCCCC(F)(F)F)c1cc2ccccc2s1` [Compound 655, N-(Benzo[b]thiophen-2-yl)-4-bromo-N-(5,5,5-trifluoro-pentyl)-benzenesulfonamide], the inhibition at 0.2 µM is 55%.

In the case of `CC(C)(O)c1c(N(CCCCC(F)(F)F)S(=O)(=O)c2ccc(Br)cc2)sc2ccccc12` [Compound 656, 4-Bromo-N-(3-(1-hydroxy-1-methyl-ethyl)-benzo[b]thiophen-2-yl)-N-(5,5,5-trifluoro-pentyl)-benzenesulfonamide], the IC50 turned out to be 53.7 nM and the inhibition at 0.2 µM was 98%.
